In one test the target is mTORC1 (mTOR/GbL/Raptor) (Homo sapiens, UniProt P42345). The test is described as follows: mTOR/GbL/Raptor (mTORC1) ELISA Assay. The class given is biochemical. The conditions noted are these: 0.2 nM mTORC1, 10 μM ATP, 50 nM NHis-tagged 4E-BP1; phosphorylation of 4E-BP1; read-out: IC50. The method in brief: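 Detection used Ni-chelate capture of His-tagged 4E-BP1, then anti-phospho-4E-BP1 and HRP anti-IgG with luminescent ELISA substrate. Reactions ran 120 min at ambient temperature with 0.2 nM mTORC1, 10 μM ATP, 50 nM 4E-BP1, 10 mM MnCl2, pH 7.2 Hepes.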

The next test concerns the target PI3Kα (Homo sapiens, UniProt P42336). Nature of the test: PI3K Biochemical Assays (ATP consumption, luciferase-luciferin chemiluminescence). The conditions noted are these: PI3Kα 1.5 nM, ATP 1 μM, PIP2 10 μM; percent of ATP consumed. The method in brief: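 Enzyme (1.5 nM), PIP2 substrate (10 μM) and ATP (1 μM) react about 2 h at room temperature in Tris buffer pH 7.5 with MgCl2, EGTA, DTT and CHAPS. Remaining ATP detected by Kinase-Glo luminescence; total consumption limited to 40-60%.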

Each structure is given as a SMILES string.

Chain of PI3Kα (P42336 whole entry): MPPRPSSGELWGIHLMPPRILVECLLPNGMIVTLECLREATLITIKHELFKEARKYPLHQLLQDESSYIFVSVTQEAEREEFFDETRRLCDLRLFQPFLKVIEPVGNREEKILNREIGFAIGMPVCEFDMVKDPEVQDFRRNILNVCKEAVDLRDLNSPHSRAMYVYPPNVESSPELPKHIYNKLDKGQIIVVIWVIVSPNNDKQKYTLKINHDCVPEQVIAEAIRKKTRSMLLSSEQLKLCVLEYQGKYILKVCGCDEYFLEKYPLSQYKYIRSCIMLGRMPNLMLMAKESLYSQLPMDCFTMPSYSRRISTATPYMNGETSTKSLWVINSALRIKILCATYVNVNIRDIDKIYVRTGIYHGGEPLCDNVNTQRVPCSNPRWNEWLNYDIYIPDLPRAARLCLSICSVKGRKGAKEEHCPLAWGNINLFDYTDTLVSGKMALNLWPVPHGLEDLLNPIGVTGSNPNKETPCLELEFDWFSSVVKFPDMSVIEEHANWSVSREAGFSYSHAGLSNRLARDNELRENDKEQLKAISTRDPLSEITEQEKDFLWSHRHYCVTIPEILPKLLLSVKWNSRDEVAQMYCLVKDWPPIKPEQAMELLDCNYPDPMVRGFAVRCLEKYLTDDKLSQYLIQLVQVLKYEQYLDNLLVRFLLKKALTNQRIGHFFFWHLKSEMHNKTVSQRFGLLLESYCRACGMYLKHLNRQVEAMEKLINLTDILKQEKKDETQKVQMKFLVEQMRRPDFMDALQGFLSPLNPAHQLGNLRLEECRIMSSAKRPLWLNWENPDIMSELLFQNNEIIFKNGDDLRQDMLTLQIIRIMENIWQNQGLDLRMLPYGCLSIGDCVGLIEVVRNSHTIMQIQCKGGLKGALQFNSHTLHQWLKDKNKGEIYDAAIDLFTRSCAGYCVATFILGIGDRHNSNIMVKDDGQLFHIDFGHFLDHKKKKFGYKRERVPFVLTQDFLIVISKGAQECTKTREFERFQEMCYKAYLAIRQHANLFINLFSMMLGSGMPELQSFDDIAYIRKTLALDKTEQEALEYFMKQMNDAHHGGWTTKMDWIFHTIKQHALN
Chain of PI3Kα (P27986 whole entry partner): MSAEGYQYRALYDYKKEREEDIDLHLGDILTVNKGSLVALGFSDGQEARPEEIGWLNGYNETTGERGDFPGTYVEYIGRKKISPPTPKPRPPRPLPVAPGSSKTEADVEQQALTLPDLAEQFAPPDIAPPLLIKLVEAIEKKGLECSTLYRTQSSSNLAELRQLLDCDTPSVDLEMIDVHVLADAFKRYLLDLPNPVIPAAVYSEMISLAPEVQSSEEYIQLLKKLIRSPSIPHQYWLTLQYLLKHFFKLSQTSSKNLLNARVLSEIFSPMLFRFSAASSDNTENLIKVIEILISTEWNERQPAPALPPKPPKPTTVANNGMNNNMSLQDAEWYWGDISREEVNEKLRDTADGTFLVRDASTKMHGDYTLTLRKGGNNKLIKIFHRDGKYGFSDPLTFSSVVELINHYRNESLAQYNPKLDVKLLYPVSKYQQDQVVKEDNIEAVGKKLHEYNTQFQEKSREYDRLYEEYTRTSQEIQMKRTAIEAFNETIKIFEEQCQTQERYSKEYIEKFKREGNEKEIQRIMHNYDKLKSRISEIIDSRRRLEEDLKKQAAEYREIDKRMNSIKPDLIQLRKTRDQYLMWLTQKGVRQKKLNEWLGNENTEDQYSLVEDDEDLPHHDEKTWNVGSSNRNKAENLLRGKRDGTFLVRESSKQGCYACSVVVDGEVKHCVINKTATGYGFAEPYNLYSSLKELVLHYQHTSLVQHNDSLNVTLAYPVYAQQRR

What is called IC50 is the concentration that gives 50% inhibition. In the case of `CCOC(=O)[C@H]1CCCN(C(=O)N2CCOc3ccc(-c4ccc5nc(C)[nH]c5c4)cc3C2)C1` [Compound 74, ethyl (3S)-1-{[7-(2-methyl-1H-benzimidazol-6-yl)-2,3-dihydro-1,4-benzoxazepin-4(5H)-yl]carbonyl}piperidine-3-carboxylate], the IC50 at mTORC1 (mTOR/GbL/Raptor) was in the range of 250 to 700 nM; against PI3Kα it was 1000 to 3000 nM.
As for `CCOC(=O)C1CCCCN1C(=O)N1CCOc2ccc(-c3ccc4nc(C)[nH]c4c3)cc2C1` (stereo not shown) [Compound 75, ethyl 1-{[7-(2-methyl-1H-benzimidazol-6-yl)-2,3-dihydro-1,4-benzoxazepin-4(5H)-yl]carbonyl}piperidine-2-carboxylate], the IC50 on mTORC1 (mTOR/GbL/Raptor) fell in the range of 700 to 2600 nM; on PI3Kα, 1000 to 3000 nM.
With `CCC1CCC(C)N(C(=O)N2CCOc3ccc(-c4ccc5nc(C)[nH]c5c4)cc3C2)C1` (stereo not shown) [Compound 76, 4-[(5-ethyl-2-methylpiperidin-1-yl)carbonyl]-7-(2-methyl-1H-benzimidazol-6-yl)-2,3,4,5-tetrahydro-1,4-benzoxazepine], the IC50 at mTORC1 (mTOR/GbL/Raptor) lay in the range of 50 to 250 nM; against PI3Kα, 200 to 500 nM.
On to `Cc1nc2ccc(-c3ccc4c(c3)CN(C(=O)N3CCC(C)(O)CC3)CCO4)cc2[nH]1` [Compound 79, 4-methyl-1-{[7-(2-methyl-1H-benzimidazol-6-yl)-2,3-dihydro-1,4-benzoxazepin-4(5H)-yl]carbonyl}piperidin-4-ol], for which the IC50 fell in the range of 50 to 250 nM on mTORC1 (mTOR/GbL/Raptor) and 500 to 1000 nM at PI3Kα.
Regarding `Cc1nc2ccc(-c3ccc4c(c3)CN(C(=O)N3CCCCC3c3cccc(F)c3)CCO4)cc2[nH]1` (stereo not shown) [Compound 81, 4-{[2-(3-fluorophenyl)piperidin-1-yl]carbonyl}-7-(2-methyl-1H-benzimidazol-6-yl)-2,3,4,5-tetrahydro-1,4-benzoxazepine], the values for the half-inhibitory concentration (IC50) at mTORC1 (mTOR/GbL/Raptor) and against PI3Kα were at most 50 nM and at most 75 nM, respectively.
Consider `Cc1nc2ccc(-c3ccc4c(c3)CN(C(=O)N3CCC(C)(F)CC3)CCO4)cc2[nH]1` [Compound 83, 4-[(4-fluoro-4-methylpiperidin-1-yl)carbonyl]-7-(2-methyl-1H-benzimidazol-6-yl)-2,3,4,5-tetrahydro-1,4-benzoxazepine], for which the figures for the IC50 at mTORC1 (mTOR/GbL/Raptor) and on PI3Kα were 50 to 250 nM and 1000 to 3000 nM, respectively.
Consider `Cc1nc2ccc(-c3ccc4c(c3)CN(C(=O)N3CC5CCCC5C3)CCO4)cc2[nH]1` (stereo not shown) [Compound 84, 4-(hexahydrocyclopenta[c]pyrrol-2(1H)-ylcarbonyl)-7-(2-methyl-1H-benzimidazol-6-yl)-2,3,4,5-tetrahydro-1,4-benzoxazepine], for which the IC50 was in the range of 50 to 250 nM at mTORC1 (mTOR/GbL/Raptor) and 200 to 500 nM on PI3Kα.
As for `Cc1nc2ccc(-c3ccc4c(c3)CN(C(=O)N3CCCc5ccccc53)CCO4)cc2[nH]1` [Compound 85, 4-(3,4-dihydroquinolin-1(2H)-ylcarbonyl)-7-(2-methyl-1H-benzimidazol-6-yl)-2,3,4,5-tetrahydro-1,4-benzoxazepine], the figures for the concentration for half-maximal inhibition (IC50) at mTORC1 (mTOR/GbL/Raptor) and against PI3Kα were 50 to 250 nM and 1000 to 3000 nM, respectively.
The matching figures for `Cc1nc2ccc(-c3ccc4c(c3)CN(C(=O)N3CCCCC3)CCO4)cc2[nH]1` [Compound 86, 7-(2-methyl-1H-benzimidazol-6-yl)-4-(piperidin-1-ylcarbonyl)-2,3,4,5-tetrahydro-1,4-benzoxazepine]: 250 to 700 nM and 200 to 500 nM.
With `Cc1nc2ccc(-c3ccc4c(c3)CN(C(=O)N3CCCC(C)C3)CCO4)cc2[nH]1` (stereo not shown) [Compound 88, 7-(2-methyl-1H-benzimidazol-6-yl)-4-[(3-methylpiperidin-1-yl)carbonyl]-2,3,4,5-tetrahydro-1,4-benzoxazepine], the IC50 at mTORC1 (mTOR/GbL/Raptor) lay in the range of 250 to 700 nM; against PI3Kα, 200 to 500 nM.
The like results for `Cc1nc2ccc(-c3ccc4c(c3)CN(C(=O)N3CCCCCC3)CCO4)cc2[nH]1` [Compound 89, 4-(azepan-1-ylcarbonyl)-7-(2-methyl-1H-benzimidazol-6-yl)-2,3,4,5-tetrahydro-1,4-benzoxazepine] were, in that order, 250 to 700 nM and 500 to 1000 nM.
On to `Cc1nc2cc(-c3ccc4c(c3)CN(C(=O)N3C[C@H]5CC(C)C[C@H]5C3)CCO4)ccc2[nH]1` (stereo partly drawn) [Compound 90, 7-(2-methyl-1H-benzimidazol-5-yl)-4-{[(3aR,6aS)-5-methylhexahydrocyclopenta[c]pyrrol-2(1H)-yl]carbonyl}-2,3,4,5-tetrahydro-1,4-benzoxazepine], for which the results for the IC50 at mTORC1 (mTOR/GbL/Raptor) and against PI3Kα were 50 to 250 nM and 200 to 500 nM, respectively.
The like results for `Cc1nc2ccc(-c3ccc4c(c3)CN(C(=O)N(C)Cc3ccccc3)CCO4)cc2[nH]1` [Compound 92, N-methyl-7-(2-methyl-1H-benzimidazol-6-yl)-N-(phenylmethyl)-2,3-dihydro-1,4-benzoxazepine-4(5H)-carboxamide] were, in that order, 50 to 250 nM and 500 to 1000 nM.
The matching figures for `Cc1nc2ccc(-c3ccc4c(c3)CN(C(=O)N(C)CCc3ccccc3)CCO4)cc2[nH]1` [Compound 93, N-methyl-7-(2-methyl-1H-benzimidazol-6-yl)-N-(2-phenylethyl)-2,3-dihydro-1,4-benzoxazepine-4(5H)-carboxamide]: 700 to 2600 nM and 1000 to 3000 nM.
As to `Cc1nc2ccc(-c3ccc4c(c3)CN(C(=O)N3CCCC3Cc3ccccc3)CCO4)cc2[nH]1` (stereo not shown) [Compound 94, 7-(2-methyl-1H-benzimidazol-6-yl)-4-{[2-(phenylmethyl)pyrrolidin-1-yl]carbonyl}-2,3,4,5-tetrahydro-1,4-benzoxazepine], the concentration for half-maximal inhibition (IC50) on mTORC1 (mTOR/GbL/Raptor) was in the range of 50 to 250 nM; on PI3Kα it was 1000 to 3000 nM.
In the case of `Cc1nc2ccc(-c3ccc4c(c3)CN(C(=O)N3CCCC3c3ccccc3)CCO4)cc2[nH]1` (stereo not shown) [Compound 95, 7-(2-methyl-1H-benzimidazol-6-yl)-4-[(2-phenylpyrrolidin-1-yl)carbonyl]-2,3,4,5-tetrahydro-1,4-benzoxazepine], the half-inhibitory concentration (IC50) on mTORC1 (mTOR/GbL/Raptor) lay in the range of 50 to 250 nM; at PI3Kα, 500 to 1000 nM.
For the compound `Cc1nc2ccc(-c3ccc4c(c3)CN(C(=O)N3CCCCC3c3ccccc3)CCO4)cc2[nH]1` (stereo not shown) [Compound 96, 7-(2-methyl-1H-benzimidazol-6-yl)-4-[(2-phenylpiperidin-1-yl)carbonyl]-2,3,4,5-tetrahydro-1,4-benzoxazepine], the half-maximal inhibitory concentration (IC50) on mTORC1 (mTOR/GbL/Raptor) was at most 50 nM; on PI3Kα, 75 to 200 nM.
As for `Cc1nc2ccc(-c3ccc4c(c3)CN(C(=O)N3CCCC(c5ccccc5)C3)CCO4)cc2[nH]1` (stereo not shown) [Compound 97, 7-(2-methyl-1H-benzimidazol-6-yl)-4-[(3-phenylpiperidin-1-yl)carbonyl]-2,3,4,5-tetrahydro-1,4-benzoxazepine], the half-maximal inhibitory concentration (IC50) at mTORC1 (mTOR/GbL/Raptor) was 250 to 700 nM; on PI3Kα, 500 to 1000 nM.
For `Cc1nc2ccc(-c3ccc4c(c3)CN(C(=O)N3CCC(c5ccccc5)C3)CCO4)cc2[nH]1` (stereo not shown) [Compound 98, 7-(2-methyl-1H-benzimidazol-6-yl)-4-[(3-phenylpyrrolidin-1-yl)carbonyl]-2,3,4,5-tetrahydro-1,4-benzoxazepine], the IC50 at mTORC1 (mTOR/GbL/Raptor) lay in the range of 50 to 250 nM; against PI3Kα, 500 to 1000 nM.
As for `Cc1nc2ccc(-c3ccc4c(c3)CN(C(=O)N3CCCC3C)CCO4)cc2[nH]1` (stereo not shown) [Compound 99, 7-(2-methyl-1H-benzimidazol-6-yl)-4-[(2-methylpyrrolidin-1-yl)carbonyl]-2,3,4,5-tetrahydro-1,4-benzoxazepine], the IC50 lay in the range of 700 to 2600 nM at mTORC1 (mTOR/GbL/Raptor) and 500 to 1000 nM on PI3Kα.
Turning to `Cc1nc2ccc(-c3ccc4c(c3)CN(C(=O)N3CCC(Cc5ccccc5)C3)CCO4)cc2[nH]1` (stereo not shown) [Compound 100, 7-(2-methyl-1H-benzimidazol-6-yl)-4-{[3-(phenylmethyl)pyrrolidin-1-yl]carbonyl}-2,3,4,5-tetrahydro-1,4-benzoxazepine], the concentration for half-maximal inhibition (IC50) lay in the range of 250 to 700 nM on mTORC1 (mTOR/GbL/Raptor) and 500 to 1000 nM against PI3Kα.
Turning to `Cc1nc2ccc(-c3ccc4c(c3)CN(C(=O)N3CCC(S(C)(=O)=O)CC3)CCO4)cc2[nH]1` [Compound 102, 7-(2-methyl-1H-benzimidazol-6-yl)-4-{[4-(methylsulfonyl)piperidin-1-yl]carbonyl}-2,3,4,5-tetrahydro-1,4-benzoxazepine], the IC50 on mTORC1 (mTOR/GbL/Raptor) fell in the range of 50 to 250 nM; on PI3Kα it was 500 to 1000 nM.
With `Cc1nc2ccc(-c3ccc4c(c3)CN(C(=O)N(Cc3ccccc3)C(C)C)CCO4)cc2[nH]1` [Compound 103, 7-(2-methyl-1H-benzimidazol-6-yl)-N-(1-methylethyl)-N-(phenylmethyl)-2,3-dihydro-1,4-benzoxazepine-4(5H)-carboxamide], the IC50 on mTORC1 (mTOR/GbL/Raptor) was in the range of 50 to 250 nM; on PI3Kα it was 1000 to 3000 nM.
For `COC1CCN(C(=O)N2CCOc3ccc(-c4ccc5nc(C)[nH]c5c4)cc3C2)CC1` [Compound 105, 7-(2-methyl-1H-benzimidazol-6-yl)-4-{[4-(methyloxy)piperidin-1-yl]carbonyl}-2,3,4,5-tetrahydro-1,4-benzoxazepine], the values for the half-maximal inhibitory concentration (IC50) at mTORC1 (mTOR/GbL/Raptor) and at PI3Kα were 50 to 250 nM and 500 to 1000 nM, respectively.
Regarding `Cc1nc2ccc(-c3ccc4c(c3)CN(C(=O)N3CCCC(Cc5ccccc5)C3)CCO4)cc2[nH]1` (stereo not shown) [Compound 106, 7-(2-methyl-1H-benzimidazol-6-yl)-4-{[3-(phenylmethyl)piperidin-1-yl]carbonyl}-2,3,4,5-tetrahydro-1,4-benzoxazepine], the results for the half-inhibitory concentration (IC50) at mTORC1 (mTOR/GbL/Raptor) and at PI3Kα were 250 to 700 nM and 1000 to 3000 nM, respectively.
The matching figures for `Cc1nc2ccc(-c3ccc4c(c3)CN(C(=O)N3CC5CCC3C5)CCO4)cc2[nH]1` (stereo not shown) [Compound 107, 4-(2-azabicyclo[2.2.1]hept-2-ylcarbonyl)-7-(2-methyl-1H-benzimidazol-6-yl)-2,3,4,5-tetrahydro-1,4-benzoxazepine]: 250 to 700 nM and 500 to 1000 nM.

Values taken from patent publication US8637499B2, “Benzoxazepines as inhibitors of PI3K/mTOR and methods of their use and manufacture” (Exelixis, Inc., priority 2009, dated 2014).
